The record followed here is US7842703B2, “Substituted benzofused derivatives and their use as vanilloid receptor ligands” (Glenmark Pharmaceuticals S.A., priority 2005, dated 2010).

The term inhibition denotes the percentage by which the read-out fell short of the control. A word on the IC50: it is the concentration that inhibits the measured activity by half.

The experiment deals with T1, Human TRPV1 expressing CHO cells (Homo sapiens, UniProt Q8NER1).
T1 construct: expressed in transfected cells; host or cells: CHO cells under G-418 selection
Briefly: Screening for TRPV1 antagonist using the 45Calcium uptake assay (inhibition of capsaicin induced cellular uptake of radioactive calcium). The note with it: for % inhibition of ^45Ca uptake at 1 μM / inhibition at 1 µM: test compound 1 μM, capsaicin 250 nM, relative to maximum ^45Ca uptake induced by capsaicin alone; for inhibition at 1 µM: CHO; for IC50: inhibition of capsaicin (250 nM) induced ^45Ca uptake. Format: cell-based. Here is the method: The inhibition of TRPV1 receptor activation was followed as inhibition of capsaicin induced cellular uptake of radioactive calcium which represents calcium influx exclusively through the plasma membrane associated TRPV1 receptor.
Stock solution of capsaicin was made in ethanol and test compounds in 100% DMSO. Stock solutions were diluted to appropriate final concentrations in assay buffer keeping the final DMSO concentration between 0.1% and 0.55%.
^45Ca was used at a final concentration of 2.5 μCi/ml (^45Ca, ICN).
Assay buffer was composed of F-12 DMEM medium supplemented with 1.8 mM CaCl2 (final conc.) and 0.1% Bovine serum albumin. (BSA from SIGMA)
Wash buffer was tyrodes solution supplemented with 0.1% BSA and 1.8 mM calcium. Lysis buffer contained 50 mM Tris-HCl, pH7.5, 150 mM NaCl, 1% Triton X-100, 0.5% deoxycholate and 0.1% Sodium dodicyl sulphate (SDS, SIGMA)
Assay was carried out with some modifications the of procedure as described by Toth et. al. (See Toth A et. al., Life Sciences 73 p 487-498, 2003). Human TRPV1 expressing CHO cells were grown in F-12 DMEM (Dulbecco's modified Eagle's medium—GIBCO) medium with 10% FBS (fetal bovine serum Hyclone), 1% penicillin-streptomycin solution, 400 μg/ml of G-418. Cells were seeded 48 h prior to the assay in 96 well plates so as to get ˜50,000 cells per well on the day of experiment. Plates were incubated at 37° C. in the presence of 5% CO2. Cells were then washed twice with 200 μl of assay buffer and re-suspended in 144 μl of the same. Assay was carried out at 30° C. in total volume of 200 μl. Test compounds were added to the cells fifteen minutes before addition of capsaicin, Final concentration of capsaicin in the assay was 250 nM. After 5 minutes of agonist treatment, drug was washed out and wells rinsed with 300 μl of ice cold wash buffer 3×. The cells were lysed in 50 μl lysis buffer for 20 min. 40 μl of cell lysate was mixed with 150 μl of Microscint PS, left overnight for equilibration. Radioactivity in samples was measured as counts per minute (cpm) using Packard Biosciences Top Count. The drug/vehicle/capsaicin treated ^45Ca uptake values were normalized over basal ^45Ca value. Data was expressed as % inhibition of ^45Ca uptake by test compound with respect to maximum ^45Ca uptake induced by capsaicin alone. IC50 value was calculated from dose response curve by nonlinear regression analysis using GraphPadPRISM software.

T1 sequence (Q8NER1 whole entry): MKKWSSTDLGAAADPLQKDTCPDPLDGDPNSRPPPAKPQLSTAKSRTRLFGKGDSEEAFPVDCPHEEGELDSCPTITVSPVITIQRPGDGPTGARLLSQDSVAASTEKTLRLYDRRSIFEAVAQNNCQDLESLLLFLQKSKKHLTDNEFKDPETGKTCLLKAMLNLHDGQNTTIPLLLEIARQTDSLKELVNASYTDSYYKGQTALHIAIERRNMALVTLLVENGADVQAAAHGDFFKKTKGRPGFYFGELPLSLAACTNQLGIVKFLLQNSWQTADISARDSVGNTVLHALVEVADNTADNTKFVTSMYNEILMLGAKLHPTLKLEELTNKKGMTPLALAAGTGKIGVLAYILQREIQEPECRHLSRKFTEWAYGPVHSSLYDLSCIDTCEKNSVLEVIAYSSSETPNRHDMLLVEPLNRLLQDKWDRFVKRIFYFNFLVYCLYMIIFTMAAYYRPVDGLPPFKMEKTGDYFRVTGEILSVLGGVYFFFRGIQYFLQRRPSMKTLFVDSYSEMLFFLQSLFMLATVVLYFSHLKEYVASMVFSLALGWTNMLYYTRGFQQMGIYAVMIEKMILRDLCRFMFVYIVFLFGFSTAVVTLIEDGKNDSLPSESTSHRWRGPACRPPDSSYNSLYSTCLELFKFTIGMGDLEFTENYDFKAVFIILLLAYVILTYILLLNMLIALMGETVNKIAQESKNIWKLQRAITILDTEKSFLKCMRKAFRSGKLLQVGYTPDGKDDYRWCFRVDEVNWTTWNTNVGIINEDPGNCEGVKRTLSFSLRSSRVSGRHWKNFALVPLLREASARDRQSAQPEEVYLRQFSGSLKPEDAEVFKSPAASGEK

`O=C(Nc1cccc2nsnc12)NC1CC2(CCC2)Oc2ccccc21` (stereo not drawn) [Example 28, N-2,1,3-benzothiadiazol-4-yl-N′-3,3′,4,4′-tetrahydro-2′H-spiro[chromene-2,1′-cyclobutan]-4-ylurea (N-2,1,3-benzothiadiazol-4-yl-N′-3,4-dihydro-2H-spiro[chromene-2,1′-cyclobutan]-4-ylurea)]: the “% inhibition of ^45Ca uptake at 1 μM” value is given as less than 50%.

On to `O=C(Nc1cccc2cnccc12)NC1CC2(CCC2)Oc2c(F)cc(F)cc21` (stereo not drawn) [Example 48, 1-(6,8-Difluoro-3,4-dihydro-spiro[2H-1-benzopyran-2,1′-cyclobutane]-4-yl)-3-(isoquinolin-5-yl)urea], for which the inhibition at 1 µM is more than 50% and the IC50 is 16.1 nM.

Take `O=C(Nc1cccc2cnccc12)NC1CC2(CCC2)Oc2ccc(Cl)cc21` (single isomer, unassigned; (-)) [Example 64, (−) 1-(6-Chloro-3,4-dihydro-spiro[2H-1-benzopyran-2,1′-cyclobutane]-4-yl)-3-(isoquinolin-5-yl)urea]: the inhibition at 1 µM was less than 50%.

`Cc1nccc2c(NC(=O)NC3CC4(CCC4)Oc4ccc(F)cc43)cccc12` (racemic) [Example 75, (±) 1-(3,4-Dihydro-6-fluoro-spiro[2H-1-benzopyran-2,1′-cyclobutane]-4-yl)-3-(1-methylisoquinolin-5-yl)urea]: the inhibition at 1 µM is more than 50% and the IC50 amounted to 23 nM.

For the compound `O=C(Nc1cccc2cnccc12)NC1CC2(CCC2)Oc2ccc(O)cc21` (racemic) [Example 45, (±) 1-(3,4-Dihydro-6-hydroxy-spiro[2H-1-benzopyran-2,1′-cyclobutane]-4-yl)-3-(isoquinolin-5-yl)urea], the inhibition at 1 µM was less than 50%.

Take `Cc1cc(C)nc(NC(=O)NC2CC3(CCC3)Oc3ccccc32)n1` (racemic) [Example 22, (±) 1-(3,4-Dihydro-spiro[2H-1-benzopyran-2,1′-cyclobutane]-4-yl)-3-(4,6-dimethylpyrimidin-2-yl)urea]: the inhibition at 1 µM is less than 50%.

As to `O=C(Nc1ccc(Cl)c2cnccc12)NC1CC2(CCC2)Oc2ccccc21` (racemic) [Example 6, (±) 1-(3,4-dihydro-spiro[2H-1-benzopyran-2,1′-cyclobutane]-4-yl)-3-(8-chloroisoquinolin-5-ylurea], the inhibition at 1 µM is more than 50% and the IC50 was 339 nM.

`O=C(NCc1ccc(C(F)(F)F)cc1)N[C@H]1CC2(CCC2)Oc2ccccc21` [Example 38, 1-((S)-3,4-Dihydrospiro[2H-1-benzopyran-2,1′-cyclobutan]-4-yl)-3-(4-trifluoromethylbenzyl)urea]: the inhibition at 1 µM is 10.9%.

On to `O=C(NCc1ccccn1)NC1CC2(CCC2)Oc2ccccc21` (racemic) [Example 32, (±) 1-(3,4-Dihydro-spiro[2H-1-benzopyran-2,1′-cyclobutane]-4-yl)-3-(pyridin-2-ylmethyl)urea], for which the inhibition at 1 µM is less than 50%.

On to `Cc1ccc2nc(NC(=O)NC3CC4(CCC4)Oc4ccccc43)sc2c1` (racemic) [Example 18, (±) 1-(3,4-Dihydro-spiro[2H-1-benzopyran-2,1′-cyclobutane]-4-yl)-3-(6-methyl-1,3-benzothiazol-2-yl)urea], for which the inhibition at 1 µM is less than 50%.

Take `O=C(Nc1cccc2cnccc12)NC1CC2(CCC2)Oc2ccc(Cl)cc21` (racemic) [Example 63, (±) 1-(6-Chloro-3,4-dihydro-spiro[2H-1-benzopyran-2,1′-cyclobutane]-4-yl)-3-(isoquinolin-5-yl)urea]: the inhibition at 1 µM is more than 50% and the IC50 is 307 nM.

For the compound `O=C(NCc1ccco1)NC1CC2(CCC2)Oc2ccccc21` (racemic) [Example 25, (±) 1-(3,4-Dihydro-spiro[2H-1-benzopyran-2,1′-cyclobutan]-4-yl)-3-(2-furylmethyl)urea], the inhibition at 1 µM is less than 50%.

In the case of `O=C(Nc1ncc(-c2ccc(Br)cc2)s1)NC1CC2(CCC2)Oc2ccccc21` (racemic) [Example 17, (±) 1-(3,4-Dihydro-spiro[2H-1-benzopyran-2,1′-cyclobutane]-4-yl)-3-[5-(4-bromophenyl)-1,3-thiazol-2-yl])urea], the “% inhibition of ^45Ca uptake at 1 μM” value is reported as less than 50%.

As for `Cc1cc2c(NC(=O)NC3CC4(CCC4)Oc4cc(OC(F)F)ccc43)cccc2cn1` (racemic) [Example 56, (±) 1-(7-Difluoromethoxy-3,4-dihydro-spiro[2H-1-benzopyran-2,1′-cyclobutane]-4-yl)-3-(3-methylisoquinolin-5-yl)urea], the inhibition at 1 µM was more than 50% and the IC50 stood at 14.4 nM.

Take `O=C(Nc1cccc2cnccc12)NC1CC2(CCC2)Oc2c(F)cc(F)cc21` (single isomer, unassigned; (-)) [Example 60, (−) 1-(6,8-Difluoro-3,4-Dihydro-spiro[2H-1-benzopyran-2,1′-cyclobutane]-4-yl)-3-(isoquinolin-5-yl)urea]: the “% inhibition of ^45Ca uptake at 1 μM” value is less than 50%.

In the case of `O=C(NCc1ccncc1)N[C@H]1CC2(CCC2)Oc2ccccc21` [Example 37], the inhibition at 1 µM turned out to be 0%.

For the compound `O=C(Nc1cccc2cnccc12)NC1CC2(CCC2)Oc2cc(OC3CCCC3)ccc21` (racemic) [Example 53, (±) 1-(7-Cyclopentyloxy-3,4-dihydro-spiro[2H-1-benzopyran-2,1′-cyclobutane]-4-yl)-3-(isoquinolin-5-yl)urea], the inhibition at 1 µM is more than 50% and the IC50 came to 15.8 nM.

`O=C(Nc1cccc2cnccc12)NC1CC2(CCC2)Oc2c(OC(F)F)cccc21` (racemic) [Example 62, (±) 1-(3,4-Dihydro-8-difluoromethoxy-spiro[2H-1-benzopyran-2,1′-cyclobutane]-4-yl)-3-(isoquinolin-5-yl)urea]: the inhibition at 1 µM was less than 50%.

`O=C(Nc1cccc2cnccc12)NC1CC2(CCC2)Oc2ccc(F)cc21` (single isomer, unassigned; (-)) [Example 44, (−) 1-(3,4-Dihydro-6-fluorospiro[2H-1-benzopyran-2,1′-cyclobutane]-4-yl)-3-(isoquinolin-5-yl)urea]: the inhibition at 1 µM is less than 50%.

Consider `O=C(Nc1cccc2cnccc12)NC1CC2(CCC2)S(=O)(=O)c2ccccc21` (racemic) [Example 82, (±) 1-(1,1-dioxo-3,4-dihydro-spiro[2H-1-benzothiopyran-2,1′cyclobutane]-4-yl)-3-(isoquinolin-5-yl)urea], for which the IC50 is 224 nM and the “% inhibition of ^45Ca uptake at 1 μM” value is more than 50%.

For the compound “(±) 1-(3,4-Dihydro-spiro[2H-1-benzopyran-2,1′-cyclobutane]-4-yl)-3-(6-fluoro-1,3-benzothiazol-2-yl)urea [Example 12]”, the “% inhibition of ^45Ca uptake at 1 μM” value is less than 50%.

Take `O=C(Nc1cccc2ncccc12)NC1CC2(CCC2)Oc2ccccc21` (racemic) [Example 26, (±) 1-(3,4-Dihydrospiro[2H-1-benzopyran-2,1′-cyclobutan]-4-yl)-3-(quinolin-5-yl)urea]: the inhibition at 1 µM was 19.8%.

In the case of `O=C(Nc1cccc2cnccc12)NC1CC2(CCOCC2)Oc2ccccc21` (racemic) [Example 2, (±) 1-(2′,3,3′,4,5′,6′-Hexahydrospiro-[2H]-1-benzopyran-2,4′-pyran-4-yl)-3-(isoquinoline-5-yl)urea], the IC50 was 171 nM and the “% inhibition of ^45Ca uptake at 1 μM” value came out at 96.12%.

As to `CNS(=O)(=O)c1ccc2c(c1)C(NC(=O)Nc1cccc3cnccc13)CC1(CCC1)O2` (racemic) [Example 55, (±) 1-(3,4-Dihydro-6-methylaminosulfonyl-spiro[2H-1-benzopyran-2,1′-cyclobutane]-4-yl)-3-(isoquinolin-5-yl)urea], the inhibition at 1 µM was less than 50%.

In the case of `O=C(Nc1cccc2cnccc12)NC1CC2(CCC2)Oc2ccccc21` (racemic) [Example 3, (±) 1-(3,4-Dihydro-spiro-[2H-1-benzopyran-2,1′-cyclobutan]-4-yl)-3-(isoquinolin-5-ylurea], the IC50 was 2.89 nM and the “% inhibition of ^45Ca uptake at 1 μM” value was 100%.

Consider `Cn1ncc2cc(NC(=O)NC3CC4(CCC4)Oc4ccccc43)ccc21` (racemic) [Example 13, (±) 1-(3,4-Dihydro-spiro[2H-1-benzopyran-2,1′-cyclobutane]-4-yl)-3-(1-methyl-1H-indazol-5-yl)urea], for which the inhibition at 1 µM was more than 50% and the IC50 is 147 nM.
